Data on 1 molecule can be found in US20210032291A1, “Compstatin Analogs With Improved Pharmacokinetic Properties” (The Trustees of the University of Pennsylvania, priority 2011, published 2021).

Structures are written as SMILES. Values after ≈ are worked out from the molar mass of the structure shown.

For orientation: Kd means the constant that tells how readily two partners part at equilibrium. Broadly, the half-life is the time needed for the level to fall by half in the phase considered. Read a high half-life as slow decline. Broadly, the share remaining is what is left of the initial amount, in per cent. Low readings indicate more turnover, high ones less turnover. In general, solubility refers to the concentration that dissolves in the medium under given conditions. Read a high solubility as much dissolved substance.

The target in data set [1] is T1, C3b (Homo sapiens, UniProt P01024).
T1 construct: Biotinylated C3b was captured site-specifically on a streptavidin chip
T1 sequence (P01024 23-667 limits assumed): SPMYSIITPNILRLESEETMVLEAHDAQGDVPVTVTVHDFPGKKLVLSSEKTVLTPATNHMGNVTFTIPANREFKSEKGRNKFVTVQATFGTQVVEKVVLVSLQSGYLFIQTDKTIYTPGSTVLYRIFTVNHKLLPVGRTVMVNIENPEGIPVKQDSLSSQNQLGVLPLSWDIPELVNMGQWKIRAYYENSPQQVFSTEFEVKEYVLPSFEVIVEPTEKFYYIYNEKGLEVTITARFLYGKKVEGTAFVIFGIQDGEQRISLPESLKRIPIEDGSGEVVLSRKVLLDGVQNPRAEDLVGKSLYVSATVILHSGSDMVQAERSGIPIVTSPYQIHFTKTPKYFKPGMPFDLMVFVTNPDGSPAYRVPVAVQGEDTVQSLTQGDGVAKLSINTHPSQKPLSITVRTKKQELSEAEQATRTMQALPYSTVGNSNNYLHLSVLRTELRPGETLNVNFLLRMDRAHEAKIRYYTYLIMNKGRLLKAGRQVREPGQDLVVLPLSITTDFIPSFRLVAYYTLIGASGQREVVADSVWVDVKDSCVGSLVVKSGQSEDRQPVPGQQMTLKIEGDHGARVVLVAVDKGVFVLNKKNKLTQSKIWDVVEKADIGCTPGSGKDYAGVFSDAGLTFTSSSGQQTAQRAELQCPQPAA
T1 sequence (P01024 749-1663 partner limits assumed): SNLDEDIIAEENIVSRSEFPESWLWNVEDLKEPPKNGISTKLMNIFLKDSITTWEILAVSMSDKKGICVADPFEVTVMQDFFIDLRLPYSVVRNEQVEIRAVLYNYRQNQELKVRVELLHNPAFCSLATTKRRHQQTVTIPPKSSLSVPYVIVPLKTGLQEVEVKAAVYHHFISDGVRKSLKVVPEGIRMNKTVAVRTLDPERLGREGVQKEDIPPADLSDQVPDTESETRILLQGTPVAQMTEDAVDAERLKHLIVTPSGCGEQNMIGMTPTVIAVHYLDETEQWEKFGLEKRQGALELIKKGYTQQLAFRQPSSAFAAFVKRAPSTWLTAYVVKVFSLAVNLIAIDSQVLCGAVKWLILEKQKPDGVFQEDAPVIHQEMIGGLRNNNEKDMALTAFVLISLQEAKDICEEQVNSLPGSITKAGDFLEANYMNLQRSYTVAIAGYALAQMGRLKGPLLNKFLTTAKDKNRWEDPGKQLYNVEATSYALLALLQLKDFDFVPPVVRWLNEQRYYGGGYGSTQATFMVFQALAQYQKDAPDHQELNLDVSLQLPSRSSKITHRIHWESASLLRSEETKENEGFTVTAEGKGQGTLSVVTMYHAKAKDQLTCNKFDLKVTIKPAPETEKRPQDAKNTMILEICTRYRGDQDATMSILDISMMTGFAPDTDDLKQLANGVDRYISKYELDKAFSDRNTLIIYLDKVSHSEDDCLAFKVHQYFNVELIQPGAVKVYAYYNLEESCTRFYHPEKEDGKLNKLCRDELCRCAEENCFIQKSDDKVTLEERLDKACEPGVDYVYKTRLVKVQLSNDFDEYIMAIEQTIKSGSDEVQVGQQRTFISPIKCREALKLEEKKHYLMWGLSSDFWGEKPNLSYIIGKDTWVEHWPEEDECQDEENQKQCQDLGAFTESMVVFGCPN
The data set can be described thus: SPR kinetic analysis of binding to immobilized C3b (Biacore, single cycle kinetics). Particulars: Table 1, N-terminal analogs. As to the method: SPR analysis. The interaction of the compstatin analogs with C3b was characterized using a Biacore 3000 instrument (GE Healthcare, Corp., Piscataway, N.J.). The running buffer was PBS, pH 7.4 (10 mM sodium phosphate, 150 mM NaCl) with 0.005% Tween-20. Biotinylated C3b was captured site-specifically on a streptavidin chip at about 3000 and 5000 RU density; two untreated flow cells were used as reference surface. For kinetic analysis, sets of five increasing concentrations of a particular compound were injected over the chip surface one after the other in a single cycle. […] Processed biosensor data were globally fitted to a 1:1 Langmuir binding model (kindly provided by GE Helthcare), and the equilibrium dissociation constant (KD) was calculated from the equation KD=kd/ka. Each assay was performed at least twice.

Data set [2] has as its system classical pathway of complement. Nature of the data set: ELISA inhibition of classical pathway complement activation. The class given is biochemical. Particulars: read-out: IC50, peptide concentration to reach 50% inhibition of classical pathway complement activation; Table 1. As to the method:
Inhibition of complement activation. The ability of the compstatin analogs to inhibit the activation of the classical pathway of complement was assessed by ELISA as described elsewhere (Katragadda et al., 2006, supra; Mallik et al., 2005, supra). The percent inhibition was plotted against the peptide concentration, and the resulting data set was fitted to the logistic dose-response function using Origin 8.0 software. IC50 values were obtained from the fitted parameters that produced the lowest χ2 value. Each analog was assayed at least three times.

The target in data set [3] is T2, C3 (Homo sapiens, UniProt P01024).
T2 construct: from tissue; host or cells: fresh human plasma (lepirudin-anticoagulated)
T2 sequence (P01024 23-1663): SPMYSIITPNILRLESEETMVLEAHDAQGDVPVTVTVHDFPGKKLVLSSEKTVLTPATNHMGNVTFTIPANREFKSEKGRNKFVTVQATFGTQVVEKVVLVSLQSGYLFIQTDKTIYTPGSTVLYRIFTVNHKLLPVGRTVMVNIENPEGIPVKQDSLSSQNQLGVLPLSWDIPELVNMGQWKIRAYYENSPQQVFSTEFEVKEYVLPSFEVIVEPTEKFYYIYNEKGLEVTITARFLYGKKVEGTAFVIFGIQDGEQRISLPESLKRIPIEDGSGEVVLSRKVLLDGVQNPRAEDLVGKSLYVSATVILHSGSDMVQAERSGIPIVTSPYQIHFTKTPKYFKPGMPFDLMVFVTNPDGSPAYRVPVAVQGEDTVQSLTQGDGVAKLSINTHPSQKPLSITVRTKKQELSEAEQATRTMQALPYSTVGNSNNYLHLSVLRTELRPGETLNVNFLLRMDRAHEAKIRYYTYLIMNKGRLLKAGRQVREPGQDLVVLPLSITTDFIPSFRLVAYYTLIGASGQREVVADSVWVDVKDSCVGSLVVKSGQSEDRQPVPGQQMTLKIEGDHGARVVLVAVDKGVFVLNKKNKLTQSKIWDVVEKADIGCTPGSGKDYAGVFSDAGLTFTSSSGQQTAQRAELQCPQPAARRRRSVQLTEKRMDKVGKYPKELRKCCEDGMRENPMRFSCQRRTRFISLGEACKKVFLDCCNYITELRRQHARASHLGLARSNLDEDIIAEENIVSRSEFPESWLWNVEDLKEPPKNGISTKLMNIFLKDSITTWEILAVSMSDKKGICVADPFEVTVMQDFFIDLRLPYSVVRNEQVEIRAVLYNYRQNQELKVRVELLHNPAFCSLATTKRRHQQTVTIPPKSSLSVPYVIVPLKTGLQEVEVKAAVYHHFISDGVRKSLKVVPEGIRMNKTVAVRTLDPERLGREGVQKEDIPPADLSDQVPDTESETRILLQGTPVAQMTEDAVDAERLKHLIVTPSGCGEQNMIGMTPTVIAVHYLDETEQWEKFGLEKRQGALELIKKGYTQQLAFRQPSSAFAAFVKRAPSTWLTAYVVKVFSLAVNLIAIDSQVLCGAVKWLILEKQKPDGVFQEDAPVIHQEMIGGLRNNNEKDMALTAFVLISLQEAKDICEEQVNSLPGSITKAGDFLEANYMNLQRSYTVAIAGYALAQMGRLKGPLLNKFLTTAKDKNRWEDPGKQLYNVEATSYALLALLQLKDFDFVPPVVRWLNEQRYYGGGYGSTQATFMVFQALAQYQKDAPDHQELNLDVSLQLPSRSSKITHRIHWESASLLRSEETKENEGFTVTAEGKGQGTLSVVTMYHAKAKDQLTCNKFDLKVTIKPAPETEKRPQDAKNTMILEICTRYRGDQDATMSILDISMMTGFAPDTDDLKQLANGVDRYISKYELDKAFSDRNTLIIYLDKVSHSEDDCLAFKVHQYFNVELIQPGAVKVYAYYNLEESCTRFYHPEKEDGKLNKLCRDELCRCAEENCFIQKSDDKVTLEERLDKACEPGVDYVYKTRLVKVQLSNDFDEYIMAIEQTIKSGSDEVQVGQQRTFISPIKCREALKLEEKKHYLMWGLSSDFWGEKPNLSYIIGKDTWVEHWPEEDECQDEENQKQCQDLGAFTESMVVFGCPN
The data set can be described thus: Plasma protein binding in human plasma (PEG precipitation, Mono Q FPLC, UPLC-MS). The class given is in vitro ADME. The note with it: 20 μM peptide, Mono Q fractions. As to the method: Plasma protein binding. Cp30 (SEQ ID NO:7) was spiked in 500 μL of fresh human plasma containing lepirudin (3.75 units/nil) so that the final peptide concentration was 20 μM (C3: 1.2 mg/mL, 6.4 μm). A control sample was prepared in the same way using Cp30 (SEQ ID NO:7) and milli-Q water to determine the area of peptide in UPLC-MS at 1 μM. The plasma sample was equilibrated at room temperature for 10 min. Then, 500 μL of 30% PEG in milli-Q water (MW3350) was slowly added to the plasma sample while mixing. The mixture was centrifuged at 14000 rpm for 10 min to separate the supernatant. The pellet was dissolved in 1000 μL of FPLC buffer A and separated by FPLC using Mono Q 5/5 column and fractions was collected at 1 mL per tube. 0.5 mL of each fraction was mixed with same volume off 4% H3PO4 for SPE and UPLC-MS analysis.
UPLC-MS analysis. […] Each sample was injected in quadruplicates. […] The analytical column temperature was held at 40° C.

Data set [4] is described as follows: in vivo. On the set-up: species or system baboons (P. Anubis). Particulars: baboon (P. Anubis), iv, 10 mg. As to the method: Juvenile baboons (P. Anubis, Baboon Research Resources, University of Oklahoma) weighing 5-8 kg were used. Two baboons were used for the study, one for each compound. Each animal received a bolus dose of peptide (10 mg) by injection through the peripheral vein. Blood samples for the LC-MS/MS assay were collected in 1-ml plastic tubes containing […] lepirudin, and centrifuged at 2000 g for 20 min at 4° C. for plasma separation. Plasma samples were stored at −70° C. Blood samples were collected at pre-determined time intervals after injection of Cp30 (SEQ ID NO:7) or the Cp30 (SEQ ID NO:7)-ABM2 conjugate. Samples were treated with SPE and analyzed using LC-MS/MS. Calibration curves were created using standard peptides at various concentrations in plasma to determine peptide concentration in each sample.
Extraction of compstatin analogs from plasma samples by SPE. […] Samples were diluted with 4% H3PO4. After loading a sample, washing was carried out with 500 μL of water and 10% ACN with 0.1% formic acid. […] Samples for LC-MS were diluted 1:2 to 1:11 in milli-Q water with 10% ACN with 0.1% formic acid.
LC-MS/MS analysis. […] Each sample was injected in triplicate. […] The analytical column temperature was held at 40° C. Peptides were separated at flow rate 0.15 mL/min. The gradient was linear 15-55% B (0.1% formic acid in acetonitrile) over 7 min.

Data set [5] in a line: Stability in human plasma at 37° C. (SPE, UPLC-MS). The note with it: fresh human plasma.
Description: Plasma stability. Fresh human plasma containing lepirudin (3.75 units/ml) was incubated at 37° C. with Cp30 (SEQ ID NO:7), Cp40 (SEQ ID NO:18) or control peptide 2B at a final concentration of 20 μM each. Samples of 100 μL were taken for solid phase extraction. A 96-well plate HLB Oasis 30 μm 10 mg (Waters, Milford, Mass.) was employed for extraction. The SPE material was conditioned by addition of 500 μL each of methanol and ACN followed by addition of 500 μL of milli-Q water. Sample was diluted 1:1 with 4% H3PO4. After loading the sample, washing was carried out twice with 500 μL of 10% ACN in 0.1% formic acid. Sample was eluted with 200 μL of 65% ACN in 0.1% formic acid and collected in the Eppendorf LoBind collection plate. Sample for UPLC-MS was diluted 1:10 in milli-Q water with 0.1% formic acid. Cp20 (SEQ ID NO:3) was spiked in each sample before SPE as an internal standard.
UPLC-MS analysis. UPLC-MS analysis was performed on a SYNAPT HDMS (Waters, Milford, Mass.) equipped with an ESI source controlled by MassLynx 4.1 software (Waters). Each sample was injected in quadruplicates. An online ACQUITY UPLC (Waters) system was used for peptide separation by reversed-phase liquid chromatography. The capillary voltage was 3.2 kV, the cone voltage was 30 V and the source temperature was 120° C. [Glu1]-fibrinogen peptide was used for lock-mass correction with a sampling rate of 30 s. […]
Data set [6] in a line: Solubility in WFI and DPBS; UPLC C18 retention time as hydrophobicity.
Description: Approximately 5 mg of each peptide (acetate form) was weighed out into separate LoBind Eppendorf tubes and 50 μL water for injection (WFI) was added to each tube. Each sample was centrifuged at 13000 rpm for 2 min and diluted for measuring the optical density (OD) at 280 nm using a NanoDrop 2000 spectrophotometer (ThermoScientific, Wilmington, Del.). Each concentrated sample was diluted 1:20 into Dulbecco's phosphate buffered saline (DPBS, without potassium and calcium; Invitrogen, Carlsbad, Calif.). The samples were monitored for precipitation, and each sample was vortexed for 5 min and centrifuged at 13000 rpm for 2 min. The OD of each DPBS supernatant was measured to determine peptide concentration at saturation.
In addition, the ultra performance liquid chromatography (UPLC) retention time of these peptides on a C18 column was measured to reflect their apparent relative hydrophobicity (Table 3).
The nature of data set [7]: Plasma levels and half-life after i.v. injection in cynomolgus monkeys. The note with it: 2 mg/kg i.v., terminal log-linear portion (1-24 h).
Description: Primate studies and sample collection. Evaluation of plasma half-life and generation of major metabolites was performed at the Simian Conservation Breeding and Research Center (SICONBREC, Makati City, Philippines) in cynomolgus monkeys (Macaca fascicularis). […] Blood samples (1-2 mL) were collected immediately before and at various time points after compound injection (2, 5 and 30 min; 1, 2, 4, 6, and 24 hours) in EDTA-coated Vacutainer tubes to prevent coagulation and complement activation, and centrifuged at ˜800×g for 10 min to obtain plasma. Plasma samples were immediately frozen and stored for further analysis. All NHP studies were performed in accordance with animal welfare laws and regulations.
Analysis of plasma samples. Prior to analysis by UPLC-MS, compstatin analogs in the plasma samples were extracted by solid phase extraction (SPE) in a 96-well plate format (HLB Oasis 30 μm, 10 mg; Waters, Milford, Mass.). […] Eluted peptides were directly analyzed by HDMS; the ESI source capillary voltage was set to 3.2 kV, the cone voltage to 30 V and the source temperature to 120° C. […]
Determination of plasma half-life. […] All calibration samples were subjected to SPE and measured using UPLC-HDMS as described above. […] For the pharmacokinetic analysis, the plasma concentration (Cp) at each time point was calculated from the extracted peak area of each peptide using the corresponding standard curve.

Turning to `CC[C@H](C)[C@H](NC(=O)CNC)C(=O)N[C@H]1CSSC[C@@H](C(=O)N(C)[C@H](C(N)=O)[C@@H](C)CC)NC(=O)[C@H](CCCNC(=N)N)NC(=O)[C@H](Cc2c[nH]cn2)NC(=O)[C@H](C)NC(=O)CN(C)C(=O)[C@H](Cc2c[nH]c3ccccc23)NC(=O)[C@H](CC(=O)O)NC(=O)[C@H](CCC(N)=O)NC(=O)[C@H](Cc2cn(C)c3ccccc23)NC(=O)[C@H](C(C)C)NC1=O` [peptide 3, Sar-Ile-[Cys-Val-Trp(Me)-Gln-Asp-Trp-Sar-Ala-His-Arg-Cys]-mIle-NH2], the “ka: association rate” value in data set [1] was 1.9 ± 0.5 10^6/Ms. For the same molecule, in data set [1] (read-out: KD: binding constant from SPR), the Kd is 1.6 nM. In data set [1] (read-out: kd: dissociation rate), the koff was 0.0029 ± 0.0003 s⁻¹. In addition, the IC50 in data set [2] is 82 ± 14 nM. In data set [3], the “Fraction of peptide co-eluted with C3” value is 88.0%, the “Fraction of peptide co-eluted with C3c” value turned out to be 4.5% and the “Fraction of peptide located in the flow-through” value came out at 7.5%. Moreover, the half-life in data set [4] was 5 h. This molecule also returned a fraction remaining at 120 h, 20 μM in data set [5] greater than 55%. Further, the solubility at 5 min in data set [6] (Dulbecco's phosphate buffered saline, pH 7.4) was 6900 µg/mL (≈ 4.07 mM). Besides, the “Hydrophobicity Retention Time” value in data set [6] (UPLC analysis on a C18 column) was determined as 4.60 min. The same molecule gave a solubility in data set [6] (water for injection) greater than 50000 µg/mL. Further, the Plasma half-life in data set [7] is listed as 10.1 h.
